Assays:
Rattus norvegicus [1] = assay: Antiinflammatory activity in Wistar albino rat assessed as inhibition of carrageenan-induced increase in paw edema at 10 mg/kg, po after 90 mins (reference value: 38.7 %); assay type: functional; set-up: scale not given: the % may be the effect or the level left
Rattus norvegicus [2] = assay: Antiinflammatory activity in Wistar albino rat assessed as inhibition of carrageenan-induced increase in paw edema at 10 mg/kg, po after 30 mins (reference value: 30.1 %); assay type: functional; set-up: scale not given: the % may be the effect or the level left
[3] = molecular target: T1, Prostaglandin G/H synthase 2 (Homo sapiens, UniProt P35354); assay: Inhibition of human recombinant COX-2 expressed in insect cell system using arachidonic acid as substrate assessed as reduction of PGG2 to PGH2 incubated for 1 min prior to substrate addition measured after 25 secs by chromogenic assay
T1 sequence (P35354 whole entry): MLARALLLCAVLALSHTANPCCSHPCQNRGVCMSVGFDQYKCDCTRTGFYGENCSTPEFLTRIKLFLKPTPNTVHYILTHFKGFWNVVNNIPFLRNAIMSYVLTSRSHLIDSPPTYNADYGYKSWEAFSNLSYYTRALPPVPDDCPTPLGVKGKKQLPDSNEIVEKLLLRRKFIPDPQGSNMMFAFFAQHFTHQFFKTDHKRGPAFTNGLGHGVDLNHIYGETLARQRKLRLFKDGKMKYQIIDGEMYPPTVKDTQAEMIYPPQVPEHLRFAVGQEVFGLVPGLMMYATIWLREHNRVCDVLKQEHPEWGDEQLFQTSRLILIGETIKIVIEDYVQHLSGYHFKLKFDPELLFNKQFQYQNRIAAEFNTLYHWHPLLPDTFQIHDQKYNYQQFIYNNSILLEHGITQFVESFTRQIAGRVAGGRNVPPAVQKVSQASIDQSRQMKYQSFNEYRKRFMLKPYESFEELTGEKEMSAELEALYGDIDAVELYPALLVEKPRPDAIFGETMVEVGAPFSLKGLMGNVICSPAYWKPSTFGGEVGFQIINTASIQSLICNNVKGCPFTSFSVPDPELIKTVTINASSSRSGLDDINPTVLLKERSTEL

[4] = Selectivity index, ratio of IC50 for human recombinant COX-2 to IC50 for rat seminal vesicle COX-1; assay type: tissue-based
[5] = molecular target: T2, Prostaglandin G/H synthase 1 (Rattus norvegicus, UniProt Q63921); assay: Inhibition of rat seminal vesicle COX-1 using arachidonic acid as substrate assessed as reduction of PGG2 to PGH2 incubated for 1 min prior to substrate addition measured after 25 secs by chromogenic assay
T2 sequence (Q63921 whole entry): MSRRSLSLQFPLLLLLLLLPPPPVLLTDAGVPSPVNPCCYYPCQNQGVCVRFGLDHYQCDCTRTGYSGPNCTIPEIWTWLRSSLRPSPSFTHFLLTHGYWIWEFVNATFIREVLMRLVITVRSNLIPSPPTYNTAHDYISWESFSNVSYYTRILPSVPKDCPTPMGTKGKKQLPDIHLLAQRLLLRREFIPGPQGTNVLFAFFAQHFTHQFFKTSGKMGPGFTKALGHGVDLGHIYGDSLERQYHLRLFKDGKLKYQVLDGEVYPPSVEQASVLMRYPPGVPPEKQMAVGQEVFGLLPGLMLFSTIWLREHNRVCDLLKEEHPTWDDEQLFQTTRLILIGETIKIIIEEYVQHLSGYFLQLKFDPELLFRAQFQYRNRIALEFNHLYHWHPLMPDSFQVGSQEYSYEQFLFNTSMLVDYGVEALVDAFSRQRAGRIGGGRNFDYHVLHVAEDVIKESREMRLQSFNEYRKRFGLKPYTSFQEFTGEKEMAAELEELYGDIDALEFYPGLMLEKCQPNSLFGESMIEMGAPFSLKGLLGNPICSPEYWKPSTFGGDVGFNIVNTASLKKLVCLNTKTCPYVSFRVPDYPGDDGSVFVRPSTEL

Which results are given for `CCOC(=O)c1c(-c2ccccc2)oc2ccc(Oc3ccccn3)cc12`?
Activity (Rattus norvegicus [1]): 32.6%; Activity (Rattus norvegicus [2]): 25.1%

Which results are given for `CCOC(=O)c1c(-c2ccccc2)oc2ccc(Oc3ccc(C)cc3)cc12`?
Activity (Rattus norvegicus [1]): 32.6%; IC50 [3]: 19.2 µM; Ratio IC50 [4]: 0.74; IC50 [5]: 26.2 µM; Activity (Rattus norvegicus [2]): 22.1%

With `CCOC(=O)c1c(C)oc2ccc(Oc3ccccc3)cc12` as the compound, how does the Activity (Rattus norvegicus [1]) read?
The Activity was 23.8%.

And the IC50 [3]?
Its IC50 is 18.5 µM.

What about the Ratio IC50 [4] of the same compound?
Its Ratio IC50 is 0.59.

What about the IC50 [5] of the same compound?
The IC50 was 30.8 µM.

What about the Activity (Rattus norvegicus [2]) of the same compound?
The Activity was 15.7%.

For `CS(=O)(=O)Nc1ccc([N+](=O)[O-])cc1Oc1ccccc1` [NIMESULIDE], which Activity (Rattus norvegicus [1]) is on record?
The Activity was 23.4%.

And the Activity (Rattus norvegicus [2])?
Its Activity is 14.1%.

Which Activity (Rattus norvegicus [1]) does the source give for `CCOC(=O)c1c(C)oc2ccc(Oc3ccccn3)cc12` here?
Its Activity is 18.9%.

And the IC50 [3]?
The IC50 was 8.1 µM.

And the Ratio IC50 [4]?
Its Ratio IC50 is 0.29.

And the IC50 [5]?
The IC50 was 27.9 µM.

What does the source list for `CCOC(=O)c1c(-c2ccccc2)oc2ccc(Oc3ccc4ccccc4c3)cc12`?
Activity (Rattus norvegicus [1]): 32.6%; Activity (Rattus norvegicus [2]): 20.1%

With `CCOC(=O)c1c(C)oc2ccc(Oc3ccc(C)cc3)cc12` as the compound, how does the Activity (Rattus norvegicus [1]) read?
The Activity was 25.8%.

What about the IC50 [3] of the same compound?
Its IC50 is 4.2 µM.

What about the Ratio IC50 [4] of the same compound?
Its Ratio IC50 is 0.08.

What about the IC50 [5] of the same compound?
Its IC50 is 49.7 µM.

And the Activity (Rattus norvegicus [2])?
The Activity was 14.1%.

For `CCOC(=O)c1c(C)oc2ccc(Oc3ccccc3C)cc12`, which Activity (Rattus norvegicus [1]) is on record?
The Activity was 20.4%.

What about the IC50 [3] of the same compound?
The IC50 was 6.1 µM.

What about the Ratio IC50 [4] of the same compound?
The Ratio IC50 was 0.17.

What about the IC50 [5] of the same compound?
The IC50 was 35.8 µM.

What about the Activity (Rattus norvegicus [2]) of the same compound?
Its Activity is 10.1%.

Which Activity (Rattus norvegicus [1]) does the source give for `CCOC(=O)c1c(C)oc2ccc(Oc3ccc(OC)cc3)cc12` here?
The Activity was 12.3%.

And the IC50 [3]?
The IC50 was 8.6 µM.

And the Ratio IC50 [4]?
The Ratio IC50 was 0.23.

What about the IC50 [5] of the same compound?
The IC50 was 38.1 µM.

What about the Activity (Rattus norvegicus [2]) of the same compound?
The Activity was 9.5%.

With `CCOC(=O)c1c(C)oc2ccc(Oc3ccc4ccccc4c3)cc12` as the compound, how does the IC50 [3] read?
The IC50 was 15.8 µM.

What about the Ratio IC50 [4] of the same compound?
The Ratio IC50 was 0.35.

What about the IC50 [5] of the same compound?
Its IC50 is 47.5 µM.

What does the source list for `CCOC(=O)c1c(-c2ccccc2)oc2ccc(Oc3ccccc3C)cc12`?
Activity (Rattus norvegicus [1]): 24.4%; IC50 [3]: 20.1 µM; Ratio IC50 [4]: 0.67; IC50 [5]: 29.8 µM; Activity (Rattus norvegicus [2]): 14.8%

For `CCOC(=O)c1c(-c2ccccc2)oc2ccc(Oc3ccccc3)cc12`, which Activity (Rattus norvegicus [1]) is on record?
The Activity was 28.4%.

And the IC50 [3]?
The IC50 was 18.2 µM.

And the Ratio IC50 [4]?
The Ratio IC50 was 0.43.

What about the IC50 [5] of the same compound?
Its IC50 is 42.5 µM.

What about the Activity (Rattus norvegicus [2]) of the same compound?
Its Activity is 15.8%.

From ChEMBL document CHEMBL3259612, “Design, synthesis, docking and anti-inflammatory evaluation of novel series of benzofuran based prodrugs” (Bioorg Med Chem Lett, 2014)
